Consider 1 molecule from patent US9649324B2, “Use of tylvalosin as antiviral agent” (ECO ANIMAL HEALTH LIMITED, priority 2006, dated 2017).

The test system of series [1] is chicken white blood cells. As to the kind of experiment: Intracellular accumulation in chicken white blood cells. It counts as in vitro ADME. The settings on record: chicken white blood cells, 10 μg/mL. As for the experimental part:
(§1) Pig blood was collected in Heparin-coated BD vacutainers (6). 20 mL of blood and 30 mL of phosphate buffered saline (PBS) were mixed in a 50 mL conical centrifuge tube. This was repeated in order to obtain 3 such tubes. The mixtures were centrifuged for 10 min at 2050×g. The white blood cells, together with some red blood cells below, were harvested into a 50 mL conical centrifuge tube. PBS was added to about 50 mL. A 63% solution of Percoll was made as follows: 6.3 mL Percoll (Sigma), 1.0 mL 1.5 M NaCl, 2.7 mL H2O. 10 mL of 63% Percoll was added to each of two 50 mL conical centrifuge tubes. 25 mL of the resuspended white blood cells were carefully layered on top of the each of the Percoll solutions. A sharp interface was produced. The material was centrifuged at 3000×g for 10 min. […] The white blood cells were harvested in PBS (50 mL) and centrifuged at 500×g for 10 min. The cell pellet was resuspended in medium (Glasgow minimum essential medium containing penicillin and streptomycin). A viable cell count was made using trypan blue. The same method used for isolation of pig WBCs was used for the chicken WBCs, with the exception that heparin (100 I.U./mL) was prepared and mixed with an equal volume of chicken whole blood.
All tubes were placed on a rotary mixing machine, at 37° C. Supernatant and cell samples were harvested at the times described in the figure legends. Duplicate samples were used for each antibiotic for each time point.
(§2) All the supernatant and cell samples were transported frozen (at approximately −20° C.) to York Bioanalytical Solutions (York, England) for analysis. Briefly, 0.25 g of buffer (RPMI medium containing 10% FCS) was weighed into a polypropylene tube. A 50 μL volume of the appropriate working solution was added to the quality control (QC) samples. Methanol (50 μL) was added to each blank sample used for preparation of calibration standards, recovery samples and reagent blanks. A 2.5 mL volume of 0.1 M phosphate buffer was added to each sample, vortex mixed for approximately 1 min and then centrifuged at 3220×g for 10 min at 4° C.
(§3) For the liquid-liquid clean-up phase, an aliquot (100 μL) of the supernatant was transferred to a polypropylene tube. The pH was adjusted to pH 8-8.5 by the addition of 0.1 M NaOH, and vortex mixed. Ethyl acetate (5 mL) was added and after capping, the whole mixture was shaken for 10 min and then centrifuged at 3220×g for 10 min at 4° C.
(§4) Ammonium acetate (20 mM; pH native)—formic acid, 1000:3, v/v (100 μL) was added to each well in a 2 mL polypropylene collection plate. An aliquot of the ethyl acetate mixture (100 μL) was transferred to the polypropylene collection plate and evaporated under nitrogen (40° C.) until the ethyl acetate was fully evaporated whilst the ammonium acetate remained. Methanol (100 μL) was added to each well, excluding the calibration standards.
(§5) To each well containing a calibration standard, 100 μL of the appropriate calibration working solution was added. Samples were then vortex mixed for at least 10 min and submitted for liquid chromatography with tandem mass spectrometric analysis. The method stated was applicable to the samples of media (and the calibration standards and quality control samples).
(§6) For the cells, the sample tubes were weighed, and 100 μL of acetonitrile was added. The samples were vortex mixed for 10 sec, then centrifuged at 10285×g at 4° C. for 5 min. The sample was transferred to a polypropylene tube. The original sample tube was washed with 0.1 M phosphate buffer (1 mL). This was transferred to the polypropylene tube. A second wash of 1 mL was made, then a final wash of 0.5 mL. The polypropylene tube was now at the same stage as the end of the liquid extraction, but with the cells present rather than media. This was then taken through the sample preparation as described above. […]

A further series relates to Caco-2 cells. As to the kind of experiment: Intracellular accumulation and trans-epithelial transport in polarised Caco-2 cells. It counts as in vitro ADME, human. The settings on record: Caco-2, 10 μg/mL, apical administration. As for the experimental part: Caco-2 cells were seeded at a density of 0.8×10^6 cells per well of a Transwell Clear filter 6 well plate, 0.4 μm pore size. The cells were incubated with 2 mL medium in both apical and basolateral chambers. This medium was replaced every 2 days for 10-14 days. Transepithelial resistance was measured using Millicell ERS apparatus (Millipore) at day 7, 10 and/or 14 in order to identify when the cells had become polarised. Readings of >1000 Ω were indicative of polarised cells. […]
as §2, §3, §4, §5
(§7) For the cells, the sample tubes were weighed, and 100 μL of acetonitrile was added. The samples were vortex mixed for 10 sec, then centrifuged at 10285×g at 4° C. for 5 min. The sample was transferred to a polypropylene tube. The original sample tube was washed with 0.1 M phosphate buffer (1 mL). This was transferred to the polypropylene tube. A second wash of 1 mL was made, then a final wash of 0.5 mL. The polypropylene tube was now at the same stage as the end of the liquid extraction, but with the cells present rather than media. This was then taken through the sample preparation as described above. The original sample tubes were allowed to dry (i.e. any remaining solvent evaporated off) and were then reweighed to determine the weight of cells in the sample, to allow the concentration per gram of cells to be determined.
(In general: Passage across Caco-2 layers is used to estimate intestinal permeability.)

The next series deals with PRRSV. The settings on record: has been shown; cited from earlier work.
The subject of another series is pig white blood cells. Kind of series: Intracellular accumulation in pig white blood cells. In kind it is in vitro ADME. On the procedure: as §1
Cells were incubated with 10 mg/mL of each antibiotic. All tubes were placed on a rotary mixing machine, at 37° C. Supernatant and cell samples were harvested at the times described in the figure legends. Duplicate samples were used for each antibiotic for each time point.
as §2, §3, §4, §5, §6

The subject of another series is HRT-18 cells. As to the kind of experiment: Intracellular accumulation of macrolides in HRT-18 cells. It counts as in vitro ADME, human. The note with it: HRT-18 cells, 10 μg/mL antibiotic. On the procedure: HRT-18 cells, in 6 cm tissue cultures dishes, were incubated in the presence of 0.5, 5 or 50 μg/mL tylvalosin. After 4 h, two dishes for each tylvalosin concentration and two dishes without antibiotic were removed from the incubator. A sample of medium (about 1 mL) was removed, placed in a labelled Eppendorf tube and stored at −20° C. The rest of the medium was then removed. Each of the cell monolayers was washed twice in PBS, using approximately 5 mL for each wash. The plunger from a 2 mL plastic syringe was used to gently scrape off the cells. PBS (500 μL) was added to the dish and the cells gently removed into this medium, using a micropipette. The sample was then placed in an Eppendorf tube and centrifuged at 8000×g in a bench centrifuge (Biofuge pico, Heraeus instruments) for 13 sec. An obvious cell pellet formed. The supernatant was removed using a micropipette and the cell material was stored at −20° C. in a labelled Eppendorf tube. After approximately 24 h the remaining tissue culture dishes were removed from the incubator and treated as described above for the 4 h samples. All the samples, including the 4 h samples, were then stored at −70° C.
HRT-18 cells were prepared as described above and used at passage 42. Stock solutions of antibiotics (either tylvalosin, tylosin or tilmicosin) were diluted in growth media and 10 μg/mL each antibiotic was added to the confluent cell monolayers. The cells were incubated at 37° C. in a 5% CO2 atmosphere for either 4 h or 24 h. The media and cells were harvested and tested for antibiotic, as described above.
as §2, §3, §4, §5, §6

The subject of series [2] is VR2332 (US strain of PRRSV). As to the kind of experiment: VR2332 (US strain of PRRSV) entry assay in MA104 cells (Example 10). The settings on record: 4 h pretreatment, moi 10, overnight.
The next series has as its system LLC-PK1 cells. Kind of series: Intracellular accumulation in pig kidney epithelial cells. In kind it is in vitro ADME. The note with it: LLC-PK1, 10 μg/mL. As for the experimental part:
LLC-PKI cells in 6 cm^2 plastic tissue culture dishes were incubated with 10 μg/mL of the different macrolides. Cells and medium were harvested as described above at 30, 75 and 120 min.
as §2, §3, §4, §5, §7

As to `CC[C@H]1OC(=O)C[C@@H](O)[C@H](C)[C@@H](O[C@@H]2O[C@H](C)[C@@H](O)[C@H](N(C)C)[C@H]2O)[C@@H](CCN2C[C@H](C)C[C@H](C)C2)C[C@@H](C)C(=O)/C=C/C(C)=C/[C@@H]1CO[C@@H]1O[C@H](C)[C@@H](O)[C@@H](OC)[C@H]1OC` (single isomer, unassigned) [tilmicosin, reference compound], the average intracellular concentration in series [1] (15 min) turned out to be 37.1 μg/mg cells; in the series with Caco-2 cells (120 min), 8.6 μg/mg cells; with Caco-2 cells (240 min) it was 16.05 μg/mg cells; with pig white blood cells (10 min) it was 31.25 μg/mg cells; with HRT-18 cells (4 h), 7.24 μg/mg cells; in the series with HRT-18 cells (24 h), 32.45 μg/mg cells. This molecule also registered an average intracellular concentration in the series on LLC-PK1 cells (75 min) of 4.98 μg/mg cells. Besides, the results for the intracellular concentration (in series [1] (60 min); in the series with pig white blood cells (20 min)) were 71.3 μg/mg cells and 36 μg/mg cells, respectively. In addition, in the series on Caco-2 cells (240 min), the “basolateral chamber content as average % of the apical chamber value” is recorded as 1.08%. In the series with Caco-2 cells (240 min), the “intracellular:extracellular ratio (fold concentration)” value is recorded as 2.5 fold. Moreover, the “effect on PRRSV” value with PRRSV is “effective”. The “toxicity in cell culture assays of antiviral potency” value in the series on cell culture is recorded as “much more toxic than tylvalosin”. For the same molecule, the “average intracellular:extracellular ratio (IC:EC)” value in the series with pig white blood cells (10 min) turned out to be 4.33; in the series on pig white blood cells (10 min, listed as Tilmicosin), 4. Besides, the “intracellular:extracellular ratio” value was 1.32 fold with HRT-18 cells (4 h), 4.64 fold in the series with HRT-18 cells (24 h) and 1.7 with LLC-PK1 cells (120 min). Besides, in series [2], the “inhibition of VR2332 infection” value is reported as “partial inhibition”.
